Test results published in the NIST ThermoML archive (doi:10.1016/j.jct.2004.09.022).
± gives the expanded uncertainty stated by the source.

How the values were obtained:
[1] = Liquid; for mass density: 293.15 K, 101.33 kPa
[2] = refractive index (Na D-line) (dimensionless); conditions: 293.15 K; 101.33 kPa; Liquid; Standard Abbe refractometry

Which results are given for `CC(C)CCO` [3-methylbutan-1-ol]?
mass density ([1]; Vibrating tube method): 808.4 ± 2.2 kg/m3; Normal boiling temperature ([1]; Fisher boiling point apparatus): 131.40 ± 0.2 °C; refractive index [2]: 1.4075 ± 0.0008

Which mass density [1] does the source give for `O` [water] here?
Its mass density is 999.9 ± 0.6 kg/m3.

And the Normal boiling temperature [1]?
Its Normal boiling temperature is 100.1 ± 0.2 °C.

What about the refractive index [2] of the same compound?
Its refractive index is 1.3324 ± 0.0008.
